Like-named read-outs stand apart in the source and are kept apart here.
Assay: Phase 1 open-label, fixed-sequence, single-ascending dose and food-effect PK study of MT1621 in adult healthy subjects
Type: in vivo, human
Protocol: A phase 1 study was conducted as an open-label, fixed-sequence, single-ascending dose study in adult healthy subjects designed to evaluate the safety, tolerability, PK, and food-effect of MT1621 (dC and dT). To evaluate the PK of MT1621, the combination was administered at three different doses. Treatment A was a 43.3 mg/kg dose of MT1621 (i.e., a 43.3 mg/kg dose of dC and a 43.3 mg/kg dose of dT (each approximately equivalent to 1 dose of a 130 mg/kg daily dose, divided 3 times daily [TID])) in healthy male and female subjects under fasting conditions; Treatment B was an 86.7 mg/kg dose of MT1621 (i.e., a 86.7 mg/kg dose of dC and a 86.7 mg/kg dose of dT (each approximately equivalent to 1 dose of a 260 mg/kg daily dose, divided TID)) in healthy male and female subjects under fasting conditions; and Treatment C was a 133.3 mg/kg dose of MT1621 (i.e., a 133.3 mg/kg dose of dC and a 133.3 mg/kg dose of dT (each approximately equivalent to a 400 mg/kg daily dose, divided TID)) in healthy male and female subjects under fasting conditions. Additionally, Treatment D was a 133.3 mg/kg dose of MT1621 (i.e., a 133.3 mg/kg dose of dC and a 133.3 mg/kg dose of dT (each approximately equivalent to a 400 mg/kg daily dose, divided TID) in healthy male and female subjects under fed conditions, to determine the effect of a high-fat meal on the single-dose PK of MT1621.
Methodology of open-label, Phase 1, fixed-sequence, single-dose, dose escalation, and food-effect study. Fourteen (14) healthy, adult, male and female subjects were enrolled with an approximately equal distribution (at least 40% of each sex) between male and female subjects.
On Day 1 of each period, subjects received 1 of 3 dose levels of MT1621 under fasting conditions as escalating single doses over 3 periods in Part A (Treatments A, B, and C in Periods 1, 2, and 3, respectively) and with the highest dose under fed conditions in Part B (Treatment D in Period 4). Four (4) of 14 subjects that completed Part A (Periods 1 to 3) could not complete Part B (Treatment D in Period 4) during the original confinement. These subjects were then to return to the clinical unit and continue the study to complete Part B (Treatment D in Period 4); 2 of the 4 subjects completed Part B.
Each treatment was assessed by blood and urine PK sampling pre-dose and up to 48 hours post-dose for the determination of dC and dT in plasma and urine PK, and possible future analysis of blood for PD biomarkers.
A washout period of at least 2 days without drug between each treatment administration was maintained. Fourteen subjects were enrolled in the study, and 12 subjects completed the study. Data from 14 subjects were included in the PK analysis of Periods 1, 2, and 3 and data from 12 subjects were included in the PK analysis of Period 4.
Study drug administered in Example 1 was 0.5 g dC and 0.5 g dT powders for solution and were reconstituted in juice or water.
After reconstitution in a fixed amount of water or juice, the solution was administered via measured volume to provide the amounts specified in Studies A, B, C, and D.
MT1621 was administered orally at Hour 0 on Day 1, following an overnight fast for Treatments A, B, and C and within 5 minutes of consumption of a standardized high-fat breakfast (which included eggs, bacon, and toast with butter) for Treatment D.
Blood samples for the determination of plasma dC and dT concentrations were collected on Day 1 of each period at pre-dose (0 hour), and at 0.25, 0.5, 1, 1.5, 2, 3, 4, 5, 6, 8, 12, 24, and 48 after study drug administration. In Period 4, blood was collected for the 48-hour PK sample; for Periods 1 through 3, the 48-hour PK sample was collected at the same time as the pre-dose PK sample from the next period so only 1 sample was collected for both PK time points. It should be pointed out that Periods 1-3 used sampling up to 24 hours for PK while Period 4 used the complete 48-hour profile. […]

[1] = 100*(test/reference): 133.3 mg/kg MT1621 fed vs fasted, baseline-adjusted plasma
[2] = Treatment A: single 43.3 mg/kg MT1621, fasted, baseline-adjusted plasma, arithmetic mean ± SD
[3] = Treatment B: single 86.7 mg/kg MT1621, fasted, baseline-adjusted plasma, arithmetic mean ± SD
[4] = Treatment D: single 133.3 mg/kg MT1621, fed (high-fat breakfast), baseline-adjusted plasma, arithmetic mean ± SD

- increase in baseline adjusted AUC, fed compared to fasted (133.3 mg/kg MT1621, plasma): 137%
- increase in baseline adjusted Cmax, fed compared to fasted (133.3 mg/kg MT1621, plasma): 79%
- AUC0-t GMR (%) [1]: 237.18%
- Cmax GMR (%) [1]: 178.88%
- AUC%extrap [2]: 11.36 ± 8.5281%
- Kel [2]: 0.1280 ± 0.1276 h⁻¹
- AUC%extrap [3]: 12.46 ± 13.194%
- Kel [3]: 0.2030 ± 0.1938 h⁻¹
- AUC%extrap (Treatment C: single 133.3 mg/kg MT1621, fasted, baseline-adjusted plasma, arithmetic mean ± SD): 1.152 ± 1.0948%
- AUC%extrap [4]: 3.567 ± 5.0087%
- Kel [4]: 0.7971 ± 0.3869 h⁻¹
- dose proportionality of Cmax (across the 3 fasted dose levels (Treatments A, B, C), plasma): less than dose-proportional
- Vd/F (both sexes, human, oral, Treatment D: single 133.3 mg/kg MT1621, fed (high-fat breakfast), baseline-adjusted plasma, arithmetic mean ± SD, read-out: Vz/F): 1660 ± 1470 L/kg
- half-life (both sexes, human, plasma, oral, 43.3 mg/kg, 43.3 mg/kg dose level, read-out: geometric mean elimination half-life (converted)): 2.16 h
- half-life (both sexes, human, plasma, oral, 43.3 mg/kg, Treatment A: single 43.3 mg/kg MT1621, fasted, baseline-adjusted plasma, arithmetic mean ± SD, read-out: t½ (converted)): 10.3 ± 8.2 h
- AUC(0-inf) (both sexes, human, plasma, oral, 43.3 mg/kg, Treatment A: single 43.3 mg/kg MT1621, fasted, baseline-adjusted plasma, geometric mean (geometric CV %)): 48.4 ng·h/mL
- AUC(0-t) (both sexes, human, plasma, oral, 43.3 mg/kg, Treatment A: single 43.3 mg/kg MT1621, fasted, baseline-adjusted plasma, geometric mean (geometric CV %), read-out: AUC0-4): 7.84 ng·h/mL
- AUC(0-t) (both sexes, human, plasma, oral, 43.3 mg/kg, Treatment A: single 43.3 mg/kg MT1621, fasted, baseline-adjusted plasma, geometric mean (geometric CV %), read-out: AUC0-6): 9.58 ng·h/mL
- AUC(0-t) (both sexes, human, plasma, oral, 43.3 mg/kg, Treatment A: single 43.3 mg/kg MT1621, fasted, baseline-adjusted plasma, geometric mean (geometric CV %), read-out: AUC0-48): 19.6 ng·h/mL
- AUC(0-t) (both sexes, human, plasma, oral, 43.3 mg/kg, Treatment A: single 43.3 mg/kg MT1621, fasted, baseline-adjusted plasma, geometric mean (geometric CV %), read-out: AUC0-t): 13.5 ng·h/mL
- Cmax (both sexes, human, plasma, oral, 43.3 mg/kg, Treatment A: single 43.3 mg/kg MT1621, fasted, baseline-adjusted plasma, geometric mean (geometric CV %), read-out: Cmax): 3.53 ng/mL
- Tmax (both sexes, human, plasma, oral, 43.3 mg/kg, Treatment A: single 43.3 mg/kg MT1621, fasted, baseline-adjusted plasma, median (minimum, maximum), read-out: Tmax): 1.25 h
- half-life (both sexes, human, plasma, oral, 86.7 mg/kg, 86.7 mg/kg dose level, read-out: geometric mean elimination half-life (converted)): 1.44 h
- half-life (both sexes, human, plasma, oral, 86.7 mg/kg, Treatment B: single 86.7 mg/kg MT1621, fasted, baseline-adjusted plasma, arithmetic mean ± SD, read-out: t½ (converted)): 8.62 ± 8.68 h
- AUC(0-inf) (both sexes, human, plasma, oral, 86.7 mg/kg, Treatment B: single 86.7 mg/kg MT1621, fasted, baseline-adjusted plasma, geometric mean (geometric CV %)): 26.6 ng·h/mL
- AUC(0-t) (both sexes, human, plasma, oral, 86.7 mg/kg, Treatment B: single 86.7 mg/kg MT1621, fasted, baseline-adjusted plasma, geometric mean (geometric CV %), read-out: AUC0-4): 10.3 ng·h/mL
- AUC(0-t) (both sexes, human, plasma, oral, 86.7 mg/kg, Treatment B: single 86.7 mg/kg MT1621, fasted, baseline-adjusted plasma, geometric mean (geometric CV %), read-out: AUC0-6): 12.8 ng·h/mL
- AUC(0-t) (both sexes, human, plasma, oral, 86.7 mg/kg, Treatment B: single 86.7 mg/kg MT1621, fasted, baseline-adjusted plasma, geometric mean (geometric CV %), read-out: AUC0-48): 29.4 ng·h/mL
- AUC(0-t) (both sexes, human, plasma, oral, 86.7 mg/kg, Treatment B: single 86.7 mg/kg MT1621, fasted, baseline-adjusted plasma, geometric mean (geometric CV %), read-out: AUC0-t): 23.2 ng·h/mL
- Cmax (both sexes, human, plasma, oral, 86.7 mg/kg, Treatment B: single 86.7 mg/kg MT1621, fasted, baseline-adjusted plasma, geometric mean (geometric CV %), read-out: Cmax): 4.67 ng/mL
- Tmax (both sexes, human, plasma, oral, 86.7 mg/kg, Treatment B: single 86.7 mg/kg MT1621, fasted, baseline-adjusted plasma, median (minimum, maximum), read-out: Tmax): 1.51 h
- half-life (both sexes, human, plasma, oral, 133.3 mg/kg, 133.3 mg/kg dose level, read-out: geometric mean elimination half-life (converted)): 3.01 h
- AUC(0-t) (both sexes, human, plasma, oral, 133.3 mg/kg, Treatment C, fasted, baseline-adjusted plasma, ANOVA on ln-transformed data, read-out: AUC0-t Geometric LSM, 133.3 mg/kg MT1621, Fasted (Reference)): 30.8 ng·h/mL
- Cmax (both sexes, human, plasma, oral, 133.3 mg/kg, Treatment C, fasted, baseline-adjusted plasma, ANOVA on ln-transformed data, read-out: Cmax Geometric LSM, 133.3 mg/kg MT1621, Fasted (Reference)): 7.17 ng/mL
- half-life (both sexes, human, plasma, oral, 133.3 mg/kg, Treatment C: single 133.3 mg/kg MT1621, fasted, baseline-adjusted plasma, arithmetic mean ± SD, read-out: t½ (converted)): 2.67 ± 1.98 h
- AUC(0-inf) (both sexes, human, plasma, oral, 133.3 mg/kg, Treatment C: single 133.3 mg/kg MT1621, fasted, baseline-adjusted plasma, geometric mean (geometric CV %)): 22.5 ng·h/mL
- AUC(0-t) (both sexes, human, plasma, oral, 133.3 mg/kg, Treatment C: single 133.3 mg/kg MT1621, fasted, baseline-adjusted plasma, geometric mean (geometric CV %), read-out: AUC0-4): 17.1 ng·h/mL
- AUC(0-t) (both sexes, human, plasma, oral, 133.3 mg/kg, Treatment C: single 133.3 mg/kg MT1621, fasted, baseline-adjusted plasma, geometric mean (geometric CV %), read-out: AUC0-6): 21.1 ng·h/mL
- AUC(0-t) (both sexes, human, plasma, oral, 133.3 mg/kg, Treatment C: single 133.3 mg/kg MT1621, fasted, baseline-adjusted plasma, geometric mean (geometric CV %), read-out: AUC0-48): 53.1 ng·h/mL
- AUC(0-t) (both sexes, human, plasma, oral, 133.3 mg/kg, Treatment C: single 133.3 mg/kg MT1621, fasted, baseline-adjusted plasma, geometric mean (geometric CV %), read-out: AUC0-t): 30.8 ng·h/mL
- Cmax (both sexes, human, plasma, oral, 133.3 mg/kg, Treatment C: single 133.3 mg/kg MT1621, fasted, baseline-adjusted plasma, geometric mean (geometric CV %), read-out: Cmax): 7.17 ng/mL
- Tmax (both sexes, human, plasma, oral, 133.3 mg/kg, Treatment C: single 133.3 mg/kg MT1621, fasted, baseline-adjusted plasma, median (minimum, maximum), read-out: Tmax): 1.26 h
- AUC(0-t) (both sexes, human, plasma, oral, 133.3 mg/kg, Treatment D, fed, baseline-adjusted plasma, ANOVA on ln-transformed data, read-out: AUC0-t Geometric LSM, 133.3 mg/kg MT1621, Fed (Test)): 73 ng·h/mL
- Cmax (both sexes, human, plasma, oral, 133.3 mg/kg, Treatment D, fed, baseline-adjusted plasma, ANOVA on ln-transformed data, read-out: Cmax Geometric LSM, 133.3 mg/kg MT1621, Fed (Test)): 12.8 ng/mL
- half-life (both sexes, human, plasma, oral, 133.3 mg/kg, Treatment D: single 133.3 mg/kg MT1621, fed (high-fat breakfast), baseline-adjusted plasma, arithmetic mean ± SD, read-out: t½ (converted)): 0.986 ± 0.478 h
- AUC(0-inf) (both sexes, human, plasma, oral, 133.3 mg/kg, Treatment D: single 133.3 mg/kg MT1621, fed (high-fat breakfast), baseline-adjusted plasma, geometric mean (geometric CV %)): 138 ng·h/mL
- AUC(0-t) (both sexes, human, plasma, oral, 133.3 mg/kg, Treatment D: single 133.3 mg/kg MT1621, fed (high-fat breakfast), baseline-adjusted plasma, geometric mean (geometric CV %), read-out: AUC0-4): 31.7 ng·h/mL
- AUC(0-t) (both sexes, human, plasma, oral, 133.3 mg/kg, Treatment D: single 133.3 mg/kg MT1621, fed (high-fat breakfast), baseline-adjusted plasma, geometric mean (geometric CV %), read-out: AUC0-6): 48.2 ng·h/mL
- AUC(0-t) (both sexes, human, plasma, oral, 133.3 mg/kg, Treatment D: single 133.3 mg/kg MT1621, fed (high-fat breakfast), baseline-adjusted plasma, geometric mean (geometric CV %), read-out: AUC0-48): 55.8 ng·h/mL
- AUC(0-t) (both sexes, human, plasma, oral, 133.3 mg/kg, Treatment D: single 133.3 mg/kg MT1621, fed (high-fat breakfast), baseline-adjusted plasma, geometric mean (geometric CV %), read-out: AUC0-t): 73 ng·h/mL
- Cmax (both sexes, human, plasma, oral, 133.3 mg/kg, Treatment D: single 133.3 mg/kg MT1621, fed (high-fat breakfast), baseline-adjusted plasma, geometric mean (geometric CV %), read-out: Cmax): 12.8 ng/mL
- Tmax (both sexes, human, plasma, oral, 133.3 mg/kg, Treatment D: single 133.3 mg/kg MT1621, fed (high-fat breakfast), baseline-adjusted plasma, median (minimum, maximum), read-out: Tmax): 2.02 h
- Tmax (both sexes, human, plasma, oral, under fasted conditions, read-out: median Tmax): 1 to 1.25 h
- Tmax (both sexes, human, plasma, oral, under fed conditions, read-out: median Tmax): 1 h
- plasma exposure compared to endogenous (baseline) concentrations (following MT1621, all 3 dose levels): consistently higher
Structure (SMILES): Nc1ccn([C@H]2C[C@H](O)[C@@H](CO)O2)c(=O)n1 [dC, β-D-2′-deoxycytidine]

Reference: US20240016938A1, “METHODS FOR INCREASING THE BIOAVAILABILITY OF NUCLEOSIDE MEDICINAL AGENTS” (ZOGENIX MDS, INC., priority 2022, published 2024)
